Measured values from patent publication US20080139520A1, “Altering cholesterol and fat uptake by novel allosteric inhibitors of pancreatic phospholipase A2” (priority 2006, published 2008).

Tests used:
WT (wild type) pig PLA2 = molecular target: T1, WT (wild type) pig PLA2 (Sus scrofa, UniProt P00592); test: PLA2 catalyzed hydrolysis of sonicated DMPC vesicles with added bile salt (pH-stat); type: biochemical
T1 construct: made in house
Method: Aqueous dispersion of phospholipid was sonicated in a bath type sonicator. Virtually transparent suspension was annealed for at least 4 hours at room temperature before use. Reaction progress for the PLA2 catalyzed hydrolysis of sonicated DMPC (1 mM) vesicles was measured by pH-stat titration (Radiometer) with 1 mM 2-aminopropanediol in 4 ml reaction buffer containing 5 mM CaCl2 for DMPC (or 0.5 mM for DMPM), 1 mM NaCl, […] atmosphere. Reaction was initiated by adding 0.1 μg enzyme in 1-10 μl solution. The pH stat method was also used for monitoring the rate of hydrolysis of DMPM (0.4 mM) vesicles in the presence of polymyxin [27-29], or of the mixed-micelles of POPC with bile salts in 1:2 ratio [13, 30].
Delay before the onset of the stationary phase of the PLA2 catalyzed reaction progress for the hydrolysis of zwitterionic phospholipids has been extensively characterized. […] The apparent rates in FIG. 3 were obtained from the initial slopes of such reaction progress during which <5% of the total substrate is hydrolyzed.
The CMC of the bile salts used in this study range between 0.8 to 5 mM.

PLA2 [1] = molecular target: T2, PLA2 (Sus scrofa, UniProt P00592); test: PLA2 catalyzed hydrolysis of mixed micelles of POPC with bile salts; type: biochemical, pig; settings: 1 mM POPC, 0.7 mole fraction bile salt
T2 construct: made in house
Method: (§1) Aqueous dispersion of phospholipid was sonicated in a bath type sonicator. Virtually transparent suspension was annealed for at least 4 hours at room temperature before use. Reaction progress for the PLA2 catalyzed hydrolysis of sonicated DMPC (1 mM) vesicles was measured by pH-stat titration (Radiometer) with 1 mM 2-aminopropanediol in 4 ml reaction buffer containing 5 mM CaCl2 for DMPC (or 0.5 mM for DMPM), 1 mM NaCl, and 0.1 mM EDTA at pH 8.0 and 24° C. in the nitrogen purged closed atmosphere. Reaction was initiated by adding 0.1 μg enzyme in 1-10 μl solution. The pH stat method was also used for monitoring the rate of hydrolysis of DMPM (0.4 mM) vesicles in the presence of polymyxin [27-29], or of the mixed-micelles of POPC with bile salts in 1:2 ratio [13, 30].

human pancreatic IB PLA2 = molecular target: T3, human pancreatic IB PLA2 (Homo sapiens, UniProt P04054); test: Hydrolysis of DMPC vesicles by human IB PLA2 with added bile salt; type: biochemical; settings: 1 mM DMPC
T3 construct: gift of Dr. Suren Tatulian (Orlando, Fla.)
Method: as §1

[2] = molecular target: T4, (62-66)-loop deleted pig pancreatic IB ΔPLA2 (Sus scrofa, UniProt P00592, DEL84-88); test: Hydrolysis of DMPC vesicles by (62-66)-loop deleted ΔPLA2 with added bile salt; type: biochemical
T4 construct: made in house
Method: as §1

Naja venom PLA2 = type: biochemical, Naja melanoleuca
Method: as §1

PLA2 (3W)(WT) = molecular target: T5, PLA2 (3W)(WT) (Sus scrofa, UniProt P00592); test: Bile salt binding by Trp emission, (3W)(WT) PLA2; set-up: species or system pig; settings: read-out: KEB
T5 construct: made in house
Method: (§2) Fluorescence emission spectrum or time course of the intensity change from tryptophan or the resonance energy transfer probe TMA-DPH were measured in the ratio mode on SLM-Aminco AB2 in a 1 cm cuvette [31, 32] in 1.6 ml stirred buffer containing 1 or 2 μM PLA2 in 10 mM Tris, 5 mM CaCl2 and 20 mM NaCl at pH 8.0 and 24° C. The slit-widths were 4 nm with excitation at 280.
(§3) As shown in [45], the binding of decylsulfate to the R site is accompanied by a modest increase in the emission intensity from Trp-3. […] As summarized in Table 2, the value of KEB depends on the position of Trp, although Hill coefficient remains 1. […] Note that KEB for the EB complex of ΔPLA2 is about 7-fold larger than that for PLA2.

proPLA2 = proPLA2 (Sus scrofa, UniProt P00592); test: Bile salt binding by Trp emission, proPLA2; set-up: species or system pig; settings: read-out: KEB
Method: as §2, §3

PLA2 Δ62-66 = molecular target: T6, PLA2 Δ62-66 (Sus scrofa, UniProt P00592, DEL84-88); test: Bile salt binding by Trp emission, Δ62-66 PLA2; set-up: species or system pig
T6 construct: made in house
Method: as §2, §3

PLA2 R6M = PLA2 R6M (Sus scrofa, UniProt P00592, R28M); test: Bile salt binding by Trp emission, R6M PLA2; set-up: species or system pig; settings: read-out: KEB
Method: as §2, §3

PLA2 K10M = PLA2 K10M (Sus scrofa, UniProt P00592, K32M); test: Bile salt binding by Trp emission, K10M PLA2; set-up: species or system pig; settings: read-out: KEB
Method: as §2, §3

PLA2 A1W/W3F = molecular target: T7, PLA2 A1W/W3F (Sus scrofa, UniProt P00592, A23W/W25F); test: Bile salt binding by Trp emission, A1W/W3F PLA2; set-up: species or system pig; settings: read-out: KEB
T7 construct: made in house
Method: as §2, §3

PLA2 L2W/W3F = molecular target: T8, PLA2 L2W/W3F (Sus scrofa, UniProt P00592, L24W/W25F); test: Bile salt binding by Trp emission, L2W/W3F PLA2; set-up: species or system pig; settings: read-out: KEB
T8 construct: made in house
Method: as §2, §3

PLA2 K10W/W3F = molecular target: T9, PLA2 K10W/W3F (Sus scrofa, UniProt P00592, K32W/W25F); test: Bile salt binding by Trp emission, K10W/W3F PLA2; set-up: species or system pig; settings: read-out: KEB
T9 construct: made in house
Method: as §2, §3

PLA2 L19W/W3F = molecular target: T10, PLA2 L19W/W3F (Sus scrofa, UniProt P00592, L41W/W25F); test: Bile salt binding by Trp emission, L19W/W3F PLA2; set-up: species or system pig; settings: read-out: KEB
T10 construct: made in house
Method: as §2, §3

PLA2 M20W/W3F = molecular target: T11, PLA2 M20W/W3F (Sus scrofa, UniProt P00592, M42W/W25F); test: Bile salt binding by Trp emission, M20W/W3F PLA2; set-up: species or system pig; settings: read-out: KEB
T11 construct: made in house
Method: as §2, §3

PLA2 K53W/W3F = molecular target: T12, PLA2 K53W/W3F (Sus scrofa, UniProt P00592, R75W/W25F); test: Bile salt binding by Trp emission, K53W/W3F PLA2; set-up: species or system pig; settings: read-out: KEB
T12 construct: made in house
Method: as §2, §3

PLA2 K56W/W3F = molecular target: T13, PLA2 K56W/W3F (Sus scrofa, UniProt P00592, K78W/W25F); test: Bile salt binding by Trp emission, K56W/W3F PLA2; set-up: species or system pig; settings: read-out: KEB
T13 construct: made in house
Method: as §2, §3

PLA2 K63W/W3F = PLA2 K63W/W3F (Sus scrofa, UniProt P00592, W25F/); test: Bile salt binding by Trp emission, K63W/W3F PLA2; set-up: species or system pig; settings: read-out: KEB
Method: as §2, §3

PLA2 N117W = molecular target: T14, PLA2 N117W (Sus scrofa, UniProt P00592, N139W); test: Bile salt binding by Trp emission, N117W PLA2; set-up: species or system pig; settings: read-out: KEB
T14 construct: made in house
Method: as §2, §3

PLA2 [3] = molecular target: T2, PLA2; test: Quenching of RET signal from TMA-DPH bound to PLA2 by bile salts; type: binding, pig; settings: 1 μM PLA2 and TMA-DPH, pH 8.0
Method: as §2

T1 sequence (P00592 23-146): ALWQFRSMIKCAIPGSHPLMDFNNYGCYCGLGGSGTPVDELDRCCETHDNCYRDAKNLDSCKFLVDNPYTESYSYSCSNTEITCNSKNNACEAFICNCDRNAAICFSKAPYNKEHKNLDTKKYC
T2 sequence (P00592 23-146): as above
T6 sequence (P00592 with tags, fused parts or gaps DEL84-88): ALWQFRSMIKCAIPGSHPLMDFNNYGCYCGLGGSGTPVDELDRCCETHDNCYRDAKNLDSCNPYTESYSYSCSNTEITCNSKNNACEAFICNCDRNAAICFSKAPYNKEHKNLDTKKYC
T8 sequence (P00592 23-146 L24W/W25F): as the sequence (P00592 23-146) above, with L2W, W3F counted along it
T7 sequence (P00592 23-146 A23W/W25F): as the sequence (P00592 23-146) above, with A1W, W3F counted along it
PLA2 K10M, sequence (P00592 whole entry K32M): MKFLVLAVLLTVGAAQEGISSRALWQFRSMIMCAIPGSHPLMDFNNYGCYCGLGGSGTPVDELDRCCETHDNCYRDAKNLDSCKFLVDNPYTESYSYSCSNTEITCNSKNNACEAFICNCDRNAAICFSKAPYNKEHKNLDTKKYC
PLA2 R6M, sequence (P00592 23-146 R28M): as the sequence (P00592 23-146) above, with R6M counted along it
T12 sequence (P00592 23-146 W25F/R75W): as the sequence (P00592 23-146) above, with W3F, R53W counted along it
T11 sequence (P00592 23-146 W25F/M42W): as the sequence (P00592 23-146) above, with W3F, M20W counted along it
PLA2 K63W/W3F, sequence (P00592 whole entry W25F/F85W, form open): as the sequence (P00592 whole entry K32M) above, with W25F, M32K, F85W counted along it
T13 sequence (P00592 23-146 W25F/K78W): as the sequence (P00592 23-146) above, with W3F, K56W counted along it
T5 sequence (P00592 23-146): as the sequence (P00592 23-146) above
T4 sequence (P00592 with tags, fused parts or gaps DEL84-88): as the sequence (P00592 with tags, fused parts or gaps DEL84-88) above
T10 sequence (P00592 23-146 W25F/L41W): as the sequence (P00592 23-146) above, with W3F, L19W counted along it
T9 sequence (P00592 23-146 W25F/K32W): as the sequence (P00592 23-146) above, with W3F, K10W counted along it
proPLA2, sequence (P00592 16-146 limits assumed): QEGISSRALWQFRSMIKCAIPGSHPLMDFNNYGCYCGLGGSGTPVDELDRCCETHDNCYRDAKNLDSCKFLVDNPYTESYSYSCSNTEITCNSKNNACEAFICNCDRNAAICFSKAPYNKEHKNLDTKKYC
T3 sequence (P04054 23-148): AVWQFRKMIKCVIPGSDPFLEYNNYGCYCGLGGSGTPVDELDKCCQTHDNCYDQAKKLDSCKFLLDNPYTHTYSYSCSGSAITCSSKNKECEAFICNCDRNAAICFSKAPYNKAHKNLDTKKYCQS
T14 sequence (P00592 23-146 N139W): as the sequence (P00592 23-146) above, with N117W counted along it

C[C@H](CCC(=O)NCCS(=O)(=O)O)[C@H]1CC[C@H]2[C@@H]3[C@H](O)C[C@@H]4C[C@H](O)CC[C@]4(C)[C@H]3CC[C@]12C [TCDOC, taurochenodeoxycholate]
concentration at which the rate increase and decrease is complete (WT (wild type) pig PLA2; 1 mM DMPC vesicles): < 0.12 mM
peak rate of hydrolysis of DMPC vesicles (WT (wild type) pig PLA2; 1 mM DMPC, 24° C., cholate above 0.04 mM): 80 s⁻¹
bile salt concentration at the maximum rate (WT (wild type) pig PLA2; 16° C., 1 mM DMPC): 0.013 mM
bile salt concentration at the maximum rate (WT (wild type) pig PLA2; 29° C., 1 mM DMPC): 0.13 mM
effect of bile salt on the rate of hydrolysis (monophasic/biphasic) (WT (wild type) pig PLA2; DMPC vesicles, pancreatic PLA2): a rate increase and then a rate decrease at higher concentration
initial rate of hydrolysis of POPC in mixed micelles (PLA2 [1]): 15 s⁻¹
effect on rate of hydrolysis of DMPC vesicles by human pancreatic IB PLA2 (human pancreatic IB PLA2): virtually no rate increase
rate lowering effect with ΔPLA2 mutant [2]: not observed
rate lowering effect with Naja venom enzyme (Naja venom PLA2): not observed
Kd (PLA2 (3W)(WT)): 6 µM
Kd (proPLA2): 27 µM
Kd (PLA2 Δ62-66; Δ62-66, read-out: KEB): 41 µM
KEB for the EB complex of ΔPLA2 relative to PLA2 (PLA2 Δ62-66; ΔPLA2 versus PLA2): about 7 fold
Kd (PLA2 R6M): 150 µM
Kd (PLA2 K10M): 8 µM
Kd (PLA2 A1W/W3F): 210 µM
Kd (PLA2 L2W/W3F): 18 µM
Kd (PLA2 K10W/W3F): 4 µM
Kd (PLA2 L19W/W3F): 3 µM
Kd (PLA2 M20W/W3F): 75 µM
Kd (PLA2 K53W/W3F): 15 µM
Kd (PLA2 K56W/W3F): 21 µM
Kd (PLA2 K63W/W3F): 3 µM
Kd (PLA2 N117W): 7 µM
efficacy to quench RET signal from TMA-DPH bound to PLA2 (PLA2 [3]): most effective
